# Results published in patent US20250032487A1, “DISSOLUTION TEST” (JANSSEN SCIENCES IRELAND UNLIMITED COMPANY, priority 2021, published 2025).
# Assay: In vitro dissolution test, paddle apparatus (USP type 2), polysorbate 20 in 0.05 M sodium phosphate buffer pH 7.4
# Format: physicochemical
# Experimental: The dissolution of the suspensions was tested using a paddle apparatus (USP type 2, Ph. Eur, JP) with a rotation speed of 50 rpm in 900 mL 6.0% w/v polysorbate 20 in 0.05 M sodium phosphate buffer pH 7.4 at 5° C. The sample amount corresponds to 18 mg rilpivirine.
# After 360 minutes the temperature was increased to 37° C. and maintained for 60 minutes to simulate an infinity time point. The samples taken after the temperature infinity time points are labelled as 420 minutes.
# The quantity of dissolved drug substance was determined by a gradient ultra-high performance liquid chromatographic (UHPLC) method with UV detection at 280 nm.
# The dissolution of the three rilpivirine suspensions in water was performed using Paddle Apparatus (USP type 2, Ph.Eur., JP.) at 50 rpm in 900 mL of 6.0% w/v Polysorbate 20 in 0.05 M Sodium Phosphate buffer pH 7.4, at 5.0±0.5° C. An amount of 64.98 mg (=0.06 mL×1.083 g/mL (the theoretical density of the suspension))±5% of homogeneous suspension of rilpivirine (corresponding to 18±0.9 mg of rilpivirine) was added.
# The determination of the quantity of rilpivirine present in the dissolution samples is based upon a gradient ultra-high performance liquid chromatographic (UHPLC) method with UV detection at 280 nm.
# The dissolution of a suspension of nanoparticulate rilpivirine having a Dv50 of ˜200 nm was tested using the method of Example 1 but with different temperatures of the dissolution medium (37° C., 25° C., 15° C., and 5° C.).
# The dissolution of a suspension of nanoparticulate rilpivirine having a Dv50 of 218 nm was tested using the method of Example 1 but with different concentrations of the surfactant (1-6% w/v polysorbate 20).
# [1] = Example 4, nanoparticulate suspension Dv50 ~200 nm, 5° C., 6.0% w/v polysorbate 20, pH 7.4
# [2] = Example 5, nanoparticulate suspension Dv50 218 nm, 6% polysorbate 20, 5° C., pH 7.4
structure (smiles),measurement,setting,value
"Cc1cc(/C=C/C#N)cc(C)c1Nc1ccnc(Nc2ccc(C#N)cc2)n1 [rilpivirine, 4-[[4-[[4-[(1E)-2-cyanoethenyl]-2,6-dimethylphenyl]amino]-2-pyrimidinyl]amino]benzonitrile]",% dissolved after 6 hours,[1],Over 85%
same,% dissolved at 5 minutes,[1],less than 30%
same,time until fully dissolved,"Example 4, nanoparticulate suspension Dv50 ~200 nm, 37° C., 6.0% w/v polysorbate 20, pH 7.4, 50 rpm, 900 mL",around 10 minutes
same,delta % dissolved (difference between lowest and highest % dissolved in the dissolution profile),"Example 5, 6% polysorbate 20 method, suspension Dv50 218 nm, 5° C.",approximately 80%
same,% dissolved after 360 minutes,[2],more than 85%
same,"initial release, % dissolved",[2],below 20%
